Data taken from US4282247A, “5-(2-Hydroxy-3-thiopropoxy) chromone-2-carboxylic acids chemical process and pharmaceutical compositions” (CM Industries, priority 1979, dated 1981).
Structures can show the parent of a compound that is named as a salt. Where two headings read alike, the source gives them in different places.

How the values were obtained:
[1] = tested on: passive cutaneous anaphylaxis; experiment: Inhibition of passive cutaneous anaphylaxis in rats (oral), % versus controls; assay type: in vivo; conditions: rat, os
Description: The 5-(2-hydroxy-3-thiopropoxy)chromone-2-carboxylic acids, their salts and their esters have been tested in rats by oral route to evaluate their ability to inhibit passive cutaneous anaphylaxis in animals sensitized to egg albumin and Bordetella pertussis.
The percentages of inhibition, in comparison with the controls, of the allergic reaction induced by passive cutaneous anaphylaxis in rats treated with 0.1 ml of an homologous antiserum diluted 1/10 and injected by intradermal route, are summarized in table I.

LD50 mouse, os = conditions: in vivo, po
[2] = tested on: passive cutaneous anaphylaxis; experiment: ED50 for inhibition of passive cutaneous anaphylaxis in rats sensitized to egg albumin and Bordetella pertussis, oral and intravenous; assay type: in vivo; conditions: Table IV, rat
Text: The ability of the 5-(2-hydroxy-3-thiopropoxy) chromone-2-carboxylic acids of the present invention and of the salts and esters thereof of inhibiting--by oral as well as by intravenous route--the passive cutaneous anaphylaxis in rats sensitized to egg albumin and Bordetella pertussis has been compared to that of two reference compounds: […]

[3] = po, Table III, 10 mg/kg, °° P ≤ 0.01, * non significant (product D), read-out: Δ % in comparison with controls (inhibition of passive cutaneous anaphylaxis)
[4] = po, Table III, °° P ≤ 0.01, * non significant (product D), read-out: Δ % in comparison with controls (inhibition of passive cutaneous anaphylaxis)
[5] = po, Table I, °° significant P ≤ 0.01, read-out: Δ % in comparison with controls (inhibition of passive cutaneous anaphylaxis)
[6] = po, Table I, °° P ≤ 0.01, ° P ≤ 0.05 (product B), read-out: Δ % in comparison with controls (inhibition of passive cutaneous anaphylaxis)

Structure (SMILES) | change in vivo at 100 mg/kg [1, 6] | LD50 (LD50 mouse, os) | ED50 ([2]; i.v., read-out: ED50) | also measured
CSCC(O)COc1ccc2c(=O)cc(C(=O)O)oc2c1 (stereo not shown) [product D, 7-(2-hydroxy-3-methylthiopropoxy)chromone-2-carboxylic acid, reference compound] | – | – | – | change in vivo at 10 mg/kg [1, 3]: 17.8%; change in vivo at 100 mg/kg [1, 4]: -16.2%; change in vivo at 200 mg/kg ([1]; po, Table III, 200 mg/kg, ° significant P ≤ 0.05, read-out: Δ % in comparison with controls (inhibition of passive cutaneous anaphylaxis)): -30.1%
CCCCSCC(O)COc1cccc2oc(C(=O)OCC)cc(=O)c12 (stereo not shown) [CM 57193, Ethyl 5-(2-hydroxy-3-butylthiopropoxy)chromone-2-carboxylate] | -70.8% | > 1000 mg/kg | – | change in vivo at 50 mg/kg [1, 5]: -47.6%
CC(=O)c1ccc(O)c(C(=O)O)c1 [product B, 5-acetylsalicylic acid, reference compound] | -29.2% | ~1000 mg/kg | – | –
CCCCSCC(O)COc1cccc2oc(C(=O)O)cc(=O)c12.O (stereo not shown) [CM 57194, 5-(2-hydroxy-3-butylthiopropoxy)chromone-2-carboxylic acid monohydrate] | -55.4% | > 1000 mg/kg | – | –
CCOC(=O)c1cc(=O)c2c(OCC(O)COC)cccc2o1 (stereo not shown) [product C, ethyl 5-(2-hydroxy-3-methoxypropoxy)chromone-2-carboxylate, reference compound] | – | – | – | change in vivo at 10 mg/kg ([1]; po, Table II, 10 mg/kg, °° P ≤ 0.01, * non significant (product C), read-out: Δ % in comparison with controls (inhibition of passive cutaneous anaphylaxis)): 8.71%
O=C(O)c1ccc2oc3ccc(OCCO)cc3c(=O)c2c1 [product A, 7-(2-hydroxyethoxy)-9-oxoxanthene-2-carboxylic acid, reference compound] | -66.2% | ~1000 mg/kg | – | –
CSCC(O)COc1cccc2oc(C(=O)O)cc(=O)c12 (stereo not shown) [CM 57202, 5-(2-hydroxy-3-methylthiopropoxy)chromone-2-carboxylic acid] | – | – | 0.13 mg/kg | ED50 ([2]; po, os, read-out: ED50): 38.1 mg/kg; change in vivo at 10 mg/kg [1, 3]: -53%; change in vivo at 100 mg/kg [1, 4]: -70.4%
CCOC(=O)c1cc(=O)c2c(OCC(O)CSC)cccc2o1 (stereo not shown) [CM 57201, ethyl 5-(2-hydroxy-3-methylthiopropoxy)chromone-2-carboxylate] | -75.1% | > 1000 mg/kg | 0.11 mg/kg | ED50 ([2]; po, os, read-out: ED50): 5.39 mg/kg; Δ % in comparison with controls (inhibition of passive cutaneous anaphylaxis) ([1]; Table II, 10 mg/kg, °° P ≤ 0.01, * non significant (product C)): -65.55%; change in vivo at 10 mg/kg ([1]; po, Table I, 10 mg/kg, °° significant P ≤ 0.01, read-out: Δ % in comparison with controls (inhibition of passive cutaneous anaphylaxis)): -65.5%
CCCSCC(O)COc1cccc2oc(C(=O)OCC)cc(=O)c12 (stereo not shown) [CM 57251, Ethyl 5-(2-hydroxy-3-propylthiopropoxy)chromone-2-carboxylate] | -69.1% | > 1000 mg/kg | – | –
O=C(O)c1cc(=O)c2c(OCC(O)COc3cccc4oc(C(=O)O)cc(=O)c34)cccc2o1 [Product E, 1,3-bis-(2-carboxy-5-chromonyloxy)propane-2-ol sodium salt, reference compound] | – | – | 1.15 mg/kg | ED50 ([2]; os): inactive
CCOC(=O)c1cc(=O)c2c(OCC(O)CSCC)cccc2o1 (stereo not shown) [CM 57249, Ethyl 5-(2-hydroxy-3-ethylthiopropoxy)chromone-2-carboxylate] | -75.8% | > 1000 mg/kg | – | change in vivo at 50 mg/kg [1, 5]: -73%
CCOC(=O)c1cc(=O)c2c(OCC(O)CSC(C)C)cccc2o1 (stereo not shown) [CM 57215, Ethyl 5-(2-hydroxy-3-isopropylthiopropoxy)chromone-2-carboxylate] | -75% | > 1000 mg/kg | – | –
N#Cc1ccc(OCC(O)COc2cccc3oc(C(=O)O)cc(=O)c23)cc1 (stereo not shown) [Product F, 5-(2-hydroxy-3-p-cyanophenoxypropoxy)chromone-2-carboxylic acid, reference compound] | – | – | 0.29 mg/kg | ED50 ([2]; os): inactive
